Legend:
[1] = tested on: recombinant human anti-SARS-CoV antibody 03-018; type: binding; parameters: Binding of antibody 03-018 to linear peptides of the N protein of SARS-CoV Urbani / Binding of antibody 03-018 to looped/cyclic peptides of the N protein of SARS-CoV Urbani: unit not given here
[2] = tested on: antibodies in sera from SARS patients (sera 1a, 1b, 2, 6, 37, 62, London, SARS-yellow, SARS-green); type: binding, human; parameters: Binding of serum 6 to linear peptides of protein X1 of SARS-CoV Urbani / Binding of serum 37 to linear peptides of protein X1 of SARS-CoV Urbani / Binding of serum 6 to looped/cyclic peptide (PEPSCAN-ELISA) / Binding of serum 37 to looped/cyclic peptide (PEPSCAN-ELISA) / Binding of serum 37 to looped/cyclic peptides of protein X1 of SARS-CoV Urbani / Binding of serum 6 to linear peptides of protein X2 / Binding of serum 37 to linear peptides of protein X2 / Binding of serum 37 to looped/cyclic peptides of protein X2 of SARS-CoV Urbani / Binding of serum 6 to linear peptides of protein M of SARS-CoV Urbani / Binding of serum 37 to linear peptides of protein M of SARS-CoV Urbani / Binding of serum 6 to looped/cyclic peptides of protein M of SARS-CoV Urbani / Binding of serum 37 to looped/cyclic peptides of protein M of SARS-CoV Urbani / Binding of serum 6 to linear peptides of protein X3 of SARS-CoV Urbani / Binding of serum 37 to linear peptides of protein X3 of SARS-CoV Urbani / Binding of serum 37 to looped/cyclic peptides of protein X3 of SARS-CoV Urbani / Binding of serum 6 to linear peptides of protein X4 of SARS-CoV Urbani / Binding of serum 37 to linear peptides of protein X4 of SARS-CoV Urbani / Binding of serum 37 to looped/cyclic peptides of protein X4 of SARS-CoV Urbani / Binding of serum 6 to linear peptides of protein X5 of SARS-CoV Urbani / Binding of serum 37 to linear peptides of protein X5 of SARS-CoV Urbani / Binding of serum 37 to looped/cyclic peptides of protein X5 of SARS-CoV Urbani / Binding of serum 6 to linear peptides of protein N of SARS-CoV Urbani / Binding of serum 37 to linear peptides of protein N of SARS-CoV Urbani / Binding of serum 6 to linear peptide (PEPSCAN-ELISA) / Binding of serum 1a to looped/cyclic peptides of protein N of SARS-CoV Urbani / Binding of serum 1b to looped/cyclic peptides of protein N of SARS-CoV Urbani / Binding of serum 2 to looped/cyclic peptides of protein N of SARS-CoV Urbani / Binding of serum 6 to looped/cyclic peptides of protein N of SARS-CoV Urbani / Binding of serum 37 to looped/cyclic peptides of protein N of SARS-CoV Urbani / Binding of serum 62 to looped/cyclic peptides of protein N of SARS-CoV Urbani / Binding of serum London to looped/cyclic peptides of protein N of SARS-CoV Urbani / Binding of serum SARS-green to looped/cyclic peptides of protein N of SARS-CoV Urbani: unit not given here
[3] = tested on: rabbit serum obtained by immunizing a rabbit with the SARS-CoV strain Frankfurt 1; type: binding; parameters: Binding of a rabbit serum to linear peptides / Binding of a rabbit serum to looped peptides / Rabbit serum linear peptides / Rabbit serum looped peptides / Binding of a rabbit serum to linear peptides of protein N of SARS-CoV Urbani (Rabbit serum linear peptides) / Binding of a rabbit serum to looped/cyclic peptides of protein N of SARS-CoV Urbani (Rabbit serum looped peptides): unit not given here
[4] = tested on: control sera (pooled serum of ten healthy LUMC hospital workers; commercial negative donor pooled serum from the Dutch bloodbank); type: binding, human; parameters: Binding of Control serum LUMC to linear peptides / Binding of Control serum Blood-bank to linear peptides / Binding of Control serum LUMC to looped peptides / Binding of Control Serum Blood-Bank to Looped peptides / Binding of Control serum LUMC to linear peptides of the protein M of SARS-CoV Urbani / Binding of Control serum Blood-bank to linear peptides of the protein M of SARS-CoV Urbani / Binding of Control serum LUMC to looped peptides of the protein M of SARS-CoV Urbani / Binding of Control Serum Blood-Bank to Looped peptides of the protein M of SARS-CoV Urbani: unit not given here

| Sequence | Binding of antibody 03-018 to linear peptides of the N protein of SARS-CoV Urbani [1] | Binding of antibody 03-018 to looped/cyclic peptides of the N protein of SARS-CoV Urbani [1] | Binding of serum 1a to linear peptides of protein N of SARS-CoV Urbani [2] | Binding of serum 1a to looped/cyclic peptides of protein N of SARS-CoV Urbani [2] | Binding of serum 1b to linear peptides of protein N of SARS-CoV Urbani [2] | Binding of serum 1b to looped/cyclic peptides of protein N of SARS-CoV Urbani [2] | Binding of serum 2 to linear peptides of protein N of SARS-CoV Urbani [2] | Binding of serum 2 to looped/cyclic peptides of protein N of SARS-CoV Urbani [2] | Binding of serum 6 to linear peptides of protein N of SARS-CoV Urbani [2] | Binding of serum 6 to looped/cyclic peptides of protein N of SARS-CoV Urbani [2] | Binding of serum 37 to linear peptides of protein N of SARS-CoV Urbani [2] | Binding of serum 37 to looped/cyclic peptides of protein N of SARS-CoV Urbani [2] | Binding of serum 62 to linear peptides of protein N of SARS-CoV Urbani [2] | Binding of serum 62 to looped/cyclic peptides of protein N of SARS-CoV Urbani [2] | Binding of serum London to linear peptides of protein N of SARS-CoV Urbani [2] | Binding of serum London to looped/cyclic peptides of protein N of SARS-CoV Urbani [2] | Binding of serum SARS-green to linear peptides of protein N of SARS-CoV Urbani [2] | Binding of serum SARS-green to looped/cyclic peptides of protein N of SARS-CoV Urbani [2] | Binding of serum SARS-yellow to linear peptides of protein N of SARS-CoV Urbani [2] | Binding of serum SARS-yellow to looped/cyclic peptides of protein N of SARS-CoV Urbani [2] | further results |
| --- | --- | --- | --- | --- | --- | --- | --- | --- | --- | --- | --- | --- | --- | --- | --- | --- | --- | --- | --- | --- | --- |
| MKELSPRWYFYYLGT | 0.1 | 0.2 | 0.2 | 0.4 | 0.1 | 0.2 | 0.1 | 0.4 | 0.1 | 0.2 | 0.5 | 0.7 | 0.4 | 0.6 | 0.4 | 0.4 | 0.2 | 0.4 | 0.6 | 0.4 | Binding of a rabbit serum to linear peptides of protein N of SARS-CoV Urbani (Rabbit serum linear peptides) [3]: 0.1; Binding of a rabbit serum to looped/cyclic peptides of protein N of SARS-CoV Urbani (Rabbit serum looped peptides) [3]: 0.4; Binding of Control Serum Blood-Bank to Looped peptides [4]: 0.7; Binding of Control serum Blood-bank to linear peptides [4]: 0.7; Binding of Control serum LUMC to linear peptides [4]: 0.6; Binding of Control serum LUMC to looped peptides [4]: 0.6 |
| MSDNGPQSNQRSAPR | 0.1 | 0.3 | 0.2 | 0.2 | 0.1 | 0.1 | 0.2 | 0.4 | 0.2 | 0.3 | 0.6 | 0.4 | 0.6 | 0.4 | 0.5 | 0.4 | 0.3 | 0.4 | 0.5 | 0.1 | Binding of a rabbit serum to linear peptides of protein N of SARS-CoV Urbani (Rabbit serum linear peptides) [3]: 0.1; Binding of a rabbit serum to looped/cyclic peptides of protein N of SARS-CoV Urbani (Rabbit serum looped peptides) [3]: 0.4; Binding of Control Serum Blood-Bank to Looped peptides [4]: 0.6; Binding of Control serum Blood-bank to linear peptides [4]: 0.6; Binding of Control serum LUMC to linear peptides [4]: 0.5; Binding of Control serum LUMC to looped peptides [4]: 0.5 |
| MSRIGMEVTPSGTWL | 0.1 | 0.2 | 0.3 | 0.4 | 0.1 | 0.3 | 0.2 | 0.5 | 0.2 | 0.3 | 0.6 | 0.6 | 0.7 | 0.7 | 0.5 | 0.5 | 0.3 | 0.7 | 0.6 | 0.5 | Binding of a rabbit serum to linear peptides of protein N of SARS-CoV Urbani (Rabbit serum linear peptides) [3]: 0.2; Binding of a rabbit serum to looped/cyclic peptides of protein N of SARS-CoV Urbani (Rabbit serum looped peptides) [3]: 0.5; Control Serum Blood-Bank Looped peptides [4]: 0.7; Control serum Blood-bank linear peptides [4]: 0.8; Control serum LUMC linear peptides [4]: 0.7; Control serum LUMC looped peptides [4]: 0.7 |

From patent US20070128217A1 (priority 2003, published 2007)
